Measurements: patent publication US9795139B2, “Molecules having pesticidal utility, and intermediates, compositions, and processes, related thereto” (priority 2015, dated 2017)

Key:
Type in all cases: in vivo
[1] = system: Green Peach Aphid (Myzus persicae, MYZUPE); experiment: Bioassay on Green Peach Aphid (GPA), foliar spray on cabbage seedlings; details: 72 h, 200 ppm foliar spray on cabbage seedlings, three days, Abbott corrected % control, read-out: GPA % Control (or Mortality) rating
Experimental: Certain molecules disclosed in this document were tested against GPA using procedures described in the following example. In the reporting of the results, the “GPA & YFM Rating Table” was used (See Table Section).
Cabbage seedlings grown in 3-inch pots, with 2-3 small (3-5 cm) true leaves, were used as test substrate. The seedlings were infested with 20-50 GPA (wingless adult and nymph stages) one day prior to chemical application. Four pots with individual seedlings were used for each treatment. Test molecules (2 mg) were dissolved in 2 mL of acetone/methanol (1:1) solvent, forming stock solutions of 1000 ppm test molecule.
The stock solutions were diluted 5× with 0.025% Tween 20 in water to obtain the solution at 200 ppm test molecule. A hand-held aspirator-type sprayer was used for spraying a solution to both sides of […] leaves until runoff. Reference plants (solvent check) were sprayed with the diluent only containing 20% by volume of acetone/methanol (1:1) solvent. Treated plants were held in a holding room for three days at approximately 25° C. and ambient relative humidity (RH) prior to grading. Evaluation was conducted by counting the number of live aphids per plant under a microscope. Percent control was measured using Abbott's correction formula (W. S. Abbott, “A Method of Computing the Effectiveness of an Insecticide” J. Econ. Entomol. 18 (1925), pp. 265-267) as follows. Corrected % Control=100*(X−Y)/X where X=No. of live aphids on solvent check plants and Y=No. of live aphids on treated plants. The results are indicated in the table entitled “Table ABC: Biological Results” (See Table Section).

[2] = system: Beet Armyworm (Spodoptera exigua, LAPHEG); experiment: Bioassay on Beet Armyworm (BAW), 128-well diet tray assay; details: 168 h, 50 μg/cm^2 on artificial diet, second instar larvae, 25° C., five to seven days, average of eight wells, read-out: BAW % Control (or Mortality) rating
Procedure, shortened: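 Second instar larvae were exposed to diet treated at 50 μg/cm^2 for five to seven days at 25° C.; mortality was averaged over eight wells.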

[3] = system: Cabbage Looper (Trichoplusia ni, TRIPNI); experiment: Bioassay on Cabbage Looper (CL), 128-well diet tray assay; details: 168 h, 50 μg/cm^2 on artificial diet, second instar larvae, 25° C., five to seven days, average of eight wells, read-out: CL % Control (or Mortality) rating
Procedure, shortened: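 Second-instar larvae, one to five per well, were placed on artificial diet surface-treated with 50 μg/cm^2 test molecule applied in 90:10 acetone-water and dried, eight wells per molecule. Trays were covered, vented and held at 25° C., 14:10 light-dark for five to seven days; percent mortality per well was averaged.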

[4] = system: Yellow Fever Mosquito (Aedes aegypti, AEDSAE); details: about 1 day-old larvae, 96-well plate from 4000 ppm DMSO master, 3 days at room temperature
Procedure, shortened: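 Aedes aegypti larvae (about 1 day old) in liver-powder water were added to plates dispensed from DMSO master plates (4000 ppm stock) diluted with 90:10 water/acetone; six replicate plates per master. Lidded plates were held at room temperature for 3 days, then each well was scored for mortality.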

Structure (SMILES)	mortality at 200 ppm [1]	mortality at 50 µg/cm2 [2]	mortality at 50 µg/cm2 [3]	YFM % Control (or Mortality) rating [4]
Cc1cc([C@H]2[C@H](C(=O)Nc3ccc(Cl)c(C(=O)NC4CC(F)(F)C4)c3)C2(Cl)Cl)cc(Cl)c1Cl (relative stereo) [Molecule F50, trans-2-Chloro-5-(2,2-dichloro-3-(3,4-dichloro-5-methylphenyl)cyclopropanecarboxamido)-N-(3,3-difluorocyclobutyl)benzamide]	0 to 80%	50 to 100%	50 to 100%	D (No activity noticed in this bioassay)
O=C(NC1CC(F)(F)C1)c1cc(NC(=O)[C@H]2[C@H](c3cccc(C(F)(F)F)c3)C2(Cl)Cl)ccc1Cl (relative stereo) [Molecule F19, trans-2-Chloro-5-(2,2-dichloro-3-(3-(trifluoromethyl)phenyl)cyclopropanecarboxamido)-N-(3,3-difluorocyclobutyl)benzamide]	80 to 100%	50 to 100%	50 to 100%	B (More than 0-Less than 80)
O=C(NC1CC(F)(F)C1)c1cc(NC(=O)[C@H]2[C@H](c3ccc(Cl)c(Cl)c3)C2(Cl)Cl)ccc1Cl (relative stereo) [Molecule F9, trans-2-Chloro-5-(2,2-dichloro-3-(3,4-dichlorophenyl)cyclopropanecarboxamido)-N-(3,3-difluorocyclobutyl)benzamide]	80 to 100%	50 to 100%	50 to 100%	A (80-100)
N#CC1(NC(=O)c2cc(NC(=O)C3C(c4ccc(Cl)c(Cl)c4)C3(Cl)Cl)ccc2Cl)CCC1 (stereo not drawn) [Molecule F14, trans-2-Chloro-N-(l-cyanocyclobutyl)-5-(2,2-dichloro-3-(3,4-dichlorophenyl)cyclopropanecarboxamido)benzamide]	0 to 80%	50 to 100%	50 to 100%	A (80-100)
O=C(NC1CSC1)c1cc(NC(=O)[C@H]2[C@H](c3cc(Cl)c(Cl)c(Cl)c3)C2(Cl)Cl)ccc1Cl (relative stereo) [Molecule F17, trans-2-Chloro-5-(2,2-dichloro-3-(3,4,5-trichlorophenyl)cyclopropanecarboxamido)-N-(thietan-3-yl)benzamide]	80 to 100%	50 to 100%	50 to 100%	A (80-100)
O=C(NC1CC(F)(F)C1)c1cc(NC(=O)[C@H]2[C@H](c3cc(Cl)cc(Cl)c3)C2(Cl)Cl)ccc1Cl (relative stereo) [Molecule F5, trans-2-Chloro-5-(2,2-dichloro-3-(3,5-dichlorophenyl)cyclopropanecarboxamido)-N-(3,3-difluorocyclobutyl)benzamide]	80 to 100%	50 to 100%	50 to 100%	A (80-100)
O=C(NC1CSC1)c1cc(NC(=O)[C@H]2[C@H](c3cc(Cl)cc(Cl)c3)C2(Cl)Cl)ccc1Cl (relative stereo) [Molecule F15, trans-2-Chloro-5-(2,2-dichloro-3-(3,5-dichlorophenyl)cyclopropanecarboxamido)-N-(thietan-3-yl)benzamide]	80 to 100%	50 to 100%	50 to 100%	A (80-100)
N#CC1(NC(=O)c2cc(NC(=O)[C@H]3[C@H](c4ccc(Cl)c(Cl)c4)C3(Cl)Cl)ccc2Cl)CC1 (relative stereo) [Molecule F11, trans-2-Chloro-N-(1-cyanocyclopropyl)-5-(2,2-dichloro-3-(3,4-dichlorophenyl)cyclopropanecarboxamido)benzamide]	80 to 100%	50 to 100%	50 to 100%	A (80-100)
O=C(NC1CCC1)c1cc(NC(=O)[C@H]2[C@H](c3ccc(Cl)c(Cl)c3)C2(Cl)Cl)ccc1Cl (relative stereo) [Molecule F41, trans-2-Chloro-N-cyclobutyl-5-(2,2-dichloro-3-(3,4-dichlorophenyl)cyclopropanecarboxamido)benzamide]	80 to 100%	50 to 100%	50 to 100%	A (80-100)
O=C(NC1CC1)c1cccc(NC(=O)[C@H]2[C@H](c3cc(Cl)cc(Cl)c3)C2(Cl)Cl)c1 (relative stereo) [Molecule F3, trans-N-Cyclopropyl-3-(2,2-dichloro-3-(3,5-dichlorophenyl)cyclopropanecarboxamido)benzamide]	0 to 80%	50 to 100%	50 to 100%	A (80-100)
